# Experimental data: patent US20250000881A1, “TREATMENT OF TREATMENT RESISTANT […] PSILOCYBIN” (COMPASS […], priority 2021, published 2025)
# Values joined by “and” are separate entries in the source; they are usually repeats but may differ in a detail not shown here. Equal values may be shown once.
# How the values were obtained:
# adult subjects with TRD [1] = assay: Phase 2b trial in TRD: participants starting new treatment for depression; format: in vivo, human
# Procedure: All subjects were asked to remain off their antidepressant medications for at least 3 weeks following the psilocybin session until the primary endpoint assessment, or longer. Rescue medications were allowed and described in the Rescue Medications section below. Subjects who restarted their antidepressant medications during the first 3 weeks after the psilocybin treatment administration were assessed for reasons of resuming their medications and followed until 12 weeks post-psilocybin administration.
# adult subjects with TRD [2] = assay: Phase 2b trial in TRD: Positive and Negative Affect Schedule (PANAS); format: in vivo, human; conditions: 25 mg vs 1 mg group, week 3
# Procedure: (§1) Other objectives were to evaluate the effects of psilocybin on quality of life and wellbeing, functioning and associated disability, cognitive function, and anxiety compared to 1 mg psilocybin on: • (a) Quality of life in subject EuroQoL (EQ)-5 dimension-3 level scale (EQ-5D-3L) score change from Baseline to week 3. This will also be assessed at week 12. This assessment was not mandatory. • (b) Quality of life in caregiver EQ-5D-3L score change from Baseline to week 3. This was assessed at week 12. • (c) Functioning and associated disability in the Sheehan Disability Scale (SDS) score change from Baseline to week 3. This was also assessed at week 12. • (d) Cognitive function as measured by the Digit Symbol Substitution Test (DSST) score change from baseline to week 3. This was assessed at day 1 and week 12. • (e) Level of anxiety as measured using the change in Generalised Anxiety Disorder 7 item Scale (GAD-7) total score change from baseline to week 3. This was assessed at week 12. • (f) Subject determined level of depression as measured using the change in Quick Inventory of Depressive Symptomatology Self-Rated (QIDS-SR-16) total score from Baseline to week 3. […] This was assessed at week 12. • (h) To evaluate the impact of different psilocybin doses on real life functional activity estimated from passive data streams collected on a mobile app on subjects' mobile phones. […]
# adult subjects with TRD [3] = assay: Phase 2b trial in TRD: QIDS-SR-16 self-reported depression; format: in vivo, human; conditions: 25 mg vs 1 mg group, week 3
# Procedure: as §1
# adult subjects with TRD [4] = assay: Phase 2b trial in TRD: Work and Social Adjustment Scale (WSAS); format: in vivo, human; conditions: 25 mg vs 1 mg, week 3
# Procedure: as §1
# [5] = system: participants with TRD from Example 2; assay: Long term follow-up study: time to any depressive event (KM quartiles); format: in vivo, human
# Procedure: (§2) The following example is a long term follow up of study of a sustained responder population from Example 2. 58 participants from Example 2 were selected for a long term 52 week follow up study. Of the 58 patients, 22 received a 25 mg dose of psilocybin, 19 received a 10 mg dose of psilocybin, and 17 received a 1 mg dose of psilocybin. […] None of the patients in this study received treatment for depression before their week 12 MADRS visit in Example 2. Patients were analyzed for a change in MADRS total score from Baseline to 12, 16, 20, 24, 28, 40, and 52 weeks.
# The primary endpoint of this study was to determine the median time to a depressive event after administration of psilocybin. The depressive event includes: • Initiation of new antidepressant treatment (first new antidepressant treatment in time period only); • Hospitalization due to depression/suicidality; • Suicide attempt, prevention of an imminent suicide attempt, or completed suicide; • Increased suicidality measured by worsening on MADRS item 10; • Active suicidal ideation measured by the C-SSRS; • MADRS worsening; and • Discontinuation for adverse event or lack of efficacy.
# [6] = system: participants with TRD from Example 2; assay: Long term follow-up study: MADRS responders, remitters, sustained responders to week 52; format: in vivo, human
# Procedure: as §2
# The secondary endpoint of this study was to determine the change in MADRS total score from Baseline to 12, 16, 20, 24, 28, 40, and 52 weeks post treatment. […] Note, “n*” changed to account for subjects that dropped out the long term study.
structure (smiles),measurement,setting,value
"CN(C)CCc1c[nH]c2cccc(OP(=O)(O)O)c12 [COMP360, psilocybin]",Participants started new treatment for depression,"adult subjects with TRD [1]; 1 mg (N = 79), Day 2",0 n
same,Participants started new treatment for depression,"adult subjects with TRD [1]; 10 mg (N = 75), Day 2",0 n
same,Participants started new treatment for depression,"adult subjects with TRD [1]; 25 mg (N = 79), Day 2",0 n
same,Participants started new treatment for depression,"adult subjects with TRD [1]; 25 mg (N = 79), Week 1",0 n
same,Participants started new treatment for depression,"adult subjects with TRD [1]; Overall (N = 233), Day 2",0 n
same,"PANAS negative affect, least squares mean (95% confidence intervals) treatment difference",adult subjects with TRD [2],"−3.18 (−5.59, −0.77)"
same,"PANAS positive affect, least squares mean (95% confidence intervals) treatment difference",adult subjects with TRD [2],"6.17 (3.53, 8.82)"
same,"QIDS-SR-16 total score, least squares mean treatment difference (95% confidence intervals)",adult subjects with TRD [3],"−2.78 (−4.62, −0.95)"
same,WSAS treatment difference,adult subjects with TRD [4],−5.11
same,"Time to any depressive event, KM Q1, estimate (95% CI)",[5]; 1 mg (N = 17),"6.0 (2.0, 14.0) days"
same,"Time to any depressive event, KM Q2 (median), estimate (95% CI)",[5]; 1 mg (N = 17),"21 days and 21.0 (3.0, 78.0) days"
same,"Time to any depressive event, KM Q3, estimate (95% CI)",[5]; 1 mg (N = 17),"78.0 (21.0, —) days"
same,"Time to any depressive event, KM Q1, estimate (95% CI)",[5]; 10 mg (N = 19),"19.0 (2.0, 41.0) days"
same,"Time to any depressive event, KM Q2 (median), estimate (95% CI)",[5]; 10 mg (N = 19),"43 days and 43.0 (19.0, 142.0) days"
same,"Time to any depressive event, KM Q1, estimate (95% CI)",[5]; 25 mg (N = 22),"24.0 (2.0, 132.0) days"
same,MADRS remitters (MADRS total score≤10),"[6]; 1 mg (N = 17), Week 3",0/11
same,MADRS remitters (MADRS total score≤10),"[6]; 1 mg (N = 17), Week 9",0/8
same,MADRS relaxed sustained responders,"[6]; 1 mg (N = 17), Week 12",0/7
same,MADRS remitters (MADRS total score≤10),"[6]; 1 mg (N = 17), Week 12",0/7
same,MADRS sustained responders (response at Week 3 and all subsequent visits),"[6]; 1 mg (N = 17), Week 12",0/7
same,MADRS relaxed sustained responders,"[6]; 1 mg (N = 17), Week 16",0/5
same,MADRS remitters (MADRS total score≤10),"[6]; 1 mg (N = 17), Week 16",0/5
same,MADRS responders (≥50% reduction from baseline in MADRS total score),"[6]; 1 mg (N = 17), Week 16",0/5
same,MADRS sustained responders (response at Week 3 and all subsequent visits),"[6]; 1 mg (N = 17), Week 16",0/5
same,MADRS relaxed sustained responders,"[6]; 1 mg (N = 17), Week 20",0/4
same,MADRS remitters (MADRS total score≤10),"[6]; 1 mg (N = 17), Week 20",0/4
same,MADRS sustained responders (response at Week 3 and all subsequent visits),"[6]; 1 mg (N = 17), Week 20",0/4
same,MADRS sustained responders (response at Week 3 and all subsequent visits),"[6]; 1 mg (N = 17), Week 24",0/4
same,MADRS relaxed sustained responders,"[6]; 1 mg (N = 17), Week 28",0/4
same,MADRS remitters (MADRS total score≤10),"[6]; 1 mg (N = 17), Week 28",0/4
same,MADRS sustained responders (response at Week 3 and all subsequent visits),"[6]; 1 mg (N = 17), Week 28",0/4
same,MADRS relaxed sustained responders,"[6]; 1 mg (N = 17), Week 40",0/4
same,MADRS sustained responders (response at Week 3 and all subsequent visits),"[6]; 1 mg (N = 17), Week 40",0/4
same,MADRS relaxed sustained responders,"[6]; 1 mg (N = 17), Week 52",0/4
same,MADRS remitters (MADRS total score≤10),"[6]; 1 mg (N = 17), Week 52",0/4
same,MADRS responders (≥50% reduction from baseline in MADRS total score),"[6]; 1 mg (N = 17), Week 52",0/4
same,MADRS sustained responders (response at Week 3 and all subsequent visits),"[6]; 1 mg (N = 17), Week 52",0/4
same,MADRS remitters (MADRS total score≤10),"[6]; 10 mg (N = 19), Week 16",0/5
same,MADRS relaxed sustained responders,"[6]; 10 mg (N = 19), Week 20",0/3
same,MADRS sustained responders (response at Week 3 and all subsequent visits),"[6]; 10 mg (N = 19), Week 20",0/3
same,MADRS sustained responders (response at Week 3 and all subsequent visits),"[6]; 10 mg (N = 19), Week 24",0/3
same,MADRS sustained responders (response at Week 3 and all subsequent visits),"[6]; 10 mg (N = 19), Week 28",0/4
same,MADRS sustained responders (response at Week 3 and all subsequent visits),"[6]; 10 mg (N = 19), Week 40",0/5
same,MADRS sustained responders (response at Week 3 and all subsequent visits),"[6]; 10 mg (N = 19), Week 52",0/5
same,MADRS relaxed sustained responders,"[6]; 25 mg (N = 22), Week 40",0/6
same,MADRS remitters (MADRS total score≤10),"[6]; 25 mg (N = 22), Week 40",0/6
same,MADRS sustained responders (response at Week 3 and all subsequent visits),"[6]; 25 mg (N = 22), Week 40",0/6
same,MADRS remitters (MADRS total score≤10),"[6]; 25 mg (N = 22), Week 52",0/6
same,MADRS sustained responders (response at Week 3 and all subsequent visits),"[6]; 25 mg (N = 22), Week 52",0/6
same,solubility,Solubility in water,~15 mg/mL
